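Where inhibition never reached the appropriate level, the endpoint shown equals the highest concentration tested. Otherwise, values were interpolated linearly from a five-concentration, 48-hour dose response in 96-well plates. GI50 = concentration required for 50% inhibition of growth. TGI is the concentration that stops growth completely.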
Legend:
Assay in all cases: NCI anticancer screen, dose series, 48 h; in the data active means GI50 below about 0.43 µM; inactive means the rest
[1] = test system: K-562 leukemia
[2] = test system: OVCAR-4 ovarian
[3] = test system: NCI-H226 lung
[4] = test system: NCI/ADR-RES ovarian
[5] = test system: NCI-H522 lung
[6] = test system: HCT-116 colon
[7] = test system: MCF7 breast
[8] = test system: UACC-257 melanoma
[9] = test system: SK-MEL-2 melanoma
[10] = test system: SF-268 CNS
[11] = test system: OVCAR-5 ovarian
[12] = test system: HCT-15 colon
[13] = test system: HOP-92 NSCLC
[14] = test system: SR leukemia
[15] = test system: RPMI-8226 leukemia
[16] = test system: MDA-MB-435
[17] = test system: HT29 colon
[18] = test system: IGROV1 ovarian
[19] = test system: SK-OV-3 ovarian
[20] = test system: TK-10 renal
[21] = test system: MOLT-4 leukemia
[22] = test system: DU-145 prostate
[23] = test system: OVCAR-8 ovarian
[24] = test system: COLO 205 colon
[25] = test system: HOP-62 NSCLC
[26] = test system: M14 melanoma
[27] = test system: HL-60(TB) leukemia
[28] = test system: A549 NSCLC
[29] = test system: NCI-H460 lung
[30] = test system: KM12 colon
[31] = test system: PC-3 prostate
[32] = test system: ACHN renal
[33] = test system: SK-MEL-5 melanoma
[34] = test system: NCI-H23 lung
[35] = test system: SF-295 CNS
[36] = test system: T-47D breast
[37] = test system: RXF 393 renal
[38] = test system: SNB-19 CNS
[39] = test system: OVCAR-3 ovarian
[40] = test system: HCC-2998 colon
[41] = test system: CCRF-CEM leukemia
[42] = test system: SN12C renal
[43] = test system: HS 578T breast
[44] = test system: SK-MEL-28 melanoma
[45] = test system: MALME-3M melanoma
[46] = test system: BT-549 breast
[47] = test system: SW-620 colon
[48] = test system: UO-31 renal
[49] = test system: MDA-MB-231 breast
[50] = test system: A498 renal
[51] = test system: 786-0 renal
[52] = test system: LOX IMVI melanoma
[53] = test system: U251 CNS
[54] = test system: UACC-62 melanoma
[55] = test system: CAKI-1 renal
[56] = test system: SF-539 CNS
[57] = test system: SNB-75 CNS
[58] = test system: EKVX NSCLC

COc1cccc(C2CC(=O)Nc3c2c(C)nn3-c2nc3ccccc3[nH]2)c1OC (stereo unspecified)
> 87 µM: TGI [44]
> 100 µM: TGI [1] | TGI [4] | TGI [7] | TGI [11] | TGI [20] | TGI [23] | TGI [38] | TGI [41]
> 79.8 µM: TGI [40]
> 40.9 µM: TGI [14]
> 91.3 µM: TGI [2]
50.7 µM: TGI [36]
17.8 µM: TGI [5]
39 µM: TGI [45]
28.6 µM: TGI [28]
30.3 µM: TGI [26]
12 µM: TGI [16]
10.2 µM: TGI [29]
> 90.9 µM: TGI [32]
24.3 µM: TGI [13]
20.1 µM: TGI [24]
inactive: GI50 [1] 3.89 µM | GI50 [2] 6.92 µM | GI50 [3] 3.36 µM | GI50 [4] 6.67 µM | GI50 [5] 3.7 µM | GI50 [6] 3.36 µM | GI50 [7] 3.36 µM | GI50 [8] 5.77 µM | GI50 [9] 6.37 µM | GI50 [10] 4.92 µM | GI50 [11] 11.8 µM | GI50 [12] 3.45 µM | GI50 [13] 2.95 µM | GI50 [14] 4.22 µM | GI50 [15] 3.21 µM | GI50 [16] 3 µM | GI50 [17] 4.35 µM | GI50 [18] 4.33 µM | GI50 [19] 3.83 µM | GI50 [20] 6.8 µM | GI50 [22] 8.68 µM | GI50 [23] 4.41 µM | GI50 [24] 5.72 µM | GI50 [25] 2.73 µM | GI50 [26] 4.45 µM | GI50 [27] 2.97 µM | GI50 [28] 3.5 µM | GI50 [29] 3.09 µM | GI50 [30] 4.17 µM | GI50 [31] 4.44 µM | GI50 [32] 3.98 µM | GI50 [33] 2.2 µM | GI50 [34] 2.53 µM | GI50 [35] 1.37 µM | GI50 [36] 4.02 µM | GI50 [37] 2.91 µM | GI50 [38] 4.07 µM | GI50 [39] 4.55 µM | GI50 [40] 18.1 µM | GI50 [41] 1.86 µM | GI50 [42] 4.29 µM | GI50 [43] 3.51 µM | GI50 [44] 9.71 µM | GI50 [45] 7.97 µM | GI50 [46] 5.52 µM | GI50 [47] 4.19 µM | GI50 [48] 3.35 µM | GI50 [49] 2.92 µM | GI50 [51] 5.51 µM | GI50 [52] 3.65 µM | GI50 [53] 3.63 µM | GI50 [54] 2.52 µM | GI50 [55] 3 µM | GI50 [56] 2.76 µM | GI50 [57] 2.43 µM
23.6 µM: TGI [48]
60.5 µM: TGI [31]
14.6 µM: TGI [6]
13.5 µM: TGI [57]
8.38 µM: TGI [50]
15.9 µM: TGI [3]
5.74 µM: TGI [33]
48.3 µM: TGI [42]
61.3 µM: TGI [10]
> 47.6 µM: TGI [17]
65 µM: TGI [51]
13 µM: TGI [19]
13.8 µM: TGI [27]
19.7 µM: TGI [55]
24 µM: TGI [18]
46.4 µM: TGI [47]
9.38 µM: TGI [56]
> 89.4 µM: TGI [22]
20.3 µM: TGI [53]
47.5 µM: TGI [43]
26.8 µM: TGI [12]
7.54 µM: TGI [34]
12.9 µM: TGI [52]
active: GI50 [21] 0.0531 µM
3.78 µM: TGI [35]
8.26 µM: TGI [49]
19.8 µM: TGI [30] | TGI [39]
32.7 µM: TGI [9]
7.86 µM: TGI [54]
42.2 µM: TGI [46]
39.8 µM: TGI [8]
7.78 µM: TGI [25]
10.6 µM: TGI [15] | TGI [37]

CSc1c(C(C)=O)c(O)n(-c2ccc(C)cc2)c(=O)c1C#N
> 100 µM: TGI [1] | TGI [2] | TGI [3] | TGI [4] | TGI [5] | TGI [6] | TGI [7] | TGI [8] | TGI [9] | TGI [10] | TGI [11] | TGI [12] | TGI [14] | TGI [15] | TGI [16] | TGI [17] | TGI [18] | TGI [19] | TGI [20] | TGI [21] | TGI [22] | TGI [23] | TGI [24] | TGI [26] | TGI [27] | TGI [28] | TGI [29] | TGI [30] | TGI [31] | TGI [33] | TGI [34] | TGI [36] | TGI [37] | TGI [38] | TGI [39] | TGI [40] | TGI [41] | TGI [42] | TGI [43] | TGI [44] | TGI [45] | TGI [46] | TGI [47] | TGI [48] | TGI [49] | TGI [50] | TGI [51] | TGI [58] | TGI [52] | TGI [53] | TGI [54] | TGI [55] | TGI [56] | TGI [57]

Source: PubChem BioAssay (NCI)
